From article PMC6934184, “Selective DNA-PKcs inhibition extends the therapeutic index of localized radiotherapy and chemotherapy” (The Journal of Clinical Investigation, 2019) come the findings set out here.

Usually inhibition stands for the change of the read-out against control, counted positive when it falls. The low end stands for a weak effect, the high end for a strong effect.

The target in this assay is T1, SNF1LK2 (Homo sapiens, UniProt Q9H0K1).
T1 construct: purchased Thermo Fisher Scientific (Life Technologies) SelectScreen
The experiment in a line: SelectScreen Z'LYTE. Type of assay: biochemical. The method in brief: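 SelectScreen broad panel; activity (Z'LYTE, Adapta) plus binding formats. ATP: Km app for CSF1R Z'LYTE; 10 for CAMK1 Adapta. Readout = % per kinase.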

T1 sequence (Q9H0K1 whole entry): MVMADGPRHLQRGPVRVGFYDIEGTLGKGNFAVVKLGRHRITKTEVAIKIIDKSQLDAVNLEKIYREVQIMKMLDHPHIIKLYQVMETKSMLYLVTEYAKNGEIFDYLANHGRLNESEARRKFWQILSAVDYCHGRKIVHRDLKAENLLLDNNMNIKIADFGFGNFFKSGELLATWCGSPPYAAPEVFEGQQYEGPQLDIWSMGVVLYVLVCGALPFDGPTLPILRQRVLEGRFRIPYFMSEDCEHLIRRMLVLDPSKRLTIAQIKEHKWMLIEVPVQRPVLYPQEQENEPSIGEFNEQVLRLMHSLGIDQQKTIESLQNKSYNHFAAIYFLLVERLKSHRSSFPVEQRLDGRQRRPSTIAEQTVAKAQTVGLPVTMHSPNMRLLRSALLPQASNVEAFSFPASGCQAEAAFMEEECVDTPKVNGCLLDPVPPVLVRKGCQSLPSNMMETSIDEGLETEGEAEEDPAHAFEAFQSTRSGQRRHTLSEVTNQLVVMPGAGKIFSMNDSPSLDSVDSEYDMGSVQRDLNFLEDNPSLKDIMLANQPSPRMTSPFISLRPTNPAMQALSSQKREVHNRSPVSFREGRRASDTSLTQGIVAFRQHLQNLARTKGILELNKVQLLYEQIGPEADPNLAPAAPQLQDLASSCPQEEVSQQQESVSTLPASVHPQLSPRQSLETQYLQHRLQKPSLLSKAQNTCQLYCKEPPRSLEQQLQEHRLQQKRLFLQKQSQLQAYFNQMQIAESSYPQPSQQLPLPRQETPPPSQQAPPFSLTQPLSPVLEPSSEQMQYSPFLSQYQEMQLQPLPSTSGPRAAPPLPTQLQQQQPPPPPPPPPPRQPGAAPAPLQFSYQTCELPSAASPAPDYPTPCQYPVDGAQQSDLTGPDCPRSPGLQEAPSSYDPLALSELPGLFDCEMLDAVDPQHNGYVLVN

The molecule `CN(C(=O)CN1CCOCC1)c1ccc2sc3c(-c4cccc5c(=O)cc(N6CC7CCC(C6)O7)oc45)cccc3c2c1` [NU5455] came in with an inhibition at 1 µM of 26.6%.
